Read-outs that look alike come from different tables or passages of the source.

The subject of experiment [1] is vaginal epithelium. It counts as in vivo, rat. Conditions: for whether the compound mimics the action of 17β-estradiol in the vagina: ovariectomized rats treated intravaginally, Example 3. As for the experimental part:
FIG. 4 represents H&E stained cross-sections of rat vagina after 5 days of intravaginal treatment with 100 nM betacellulin in 2% carbomer vehicle.
These histologic changes are the hallmark of a vaginal estrogenic response. Tables 2 and 3 detail the studies performed with mersalyl and betacellulin. The body of the table indicates the number of positive histological changes over the number of samples evaluated.
Table 4 includes the studies performed with the PHD/FIH non-specific inhibitor DMOG, whereas Table 5 is the studies performed with 2,4-DPD.
Table 6 includes the studies performed with the FIH specific inhibitor 3,4-dihydroxybenzoate (3,4-DHB), whereas Table 7 outlines the studies performed with N-oxalyl-D-alanine (NODA).

Another experiment relates to Betacellulin. Kind of experiment: RNA expression analysis (Affymetrix RAE230A/B arrays) of vaginal vault of ovariectomized rats after 17β-estradiol. It is filed as in vivo, rat. Conditions: Betacellulin mRNA, single dose 20 μg/kg 17β-estradiol subcutaneously. The source says: RNA was harvested from the entire vaginal vault at each time point and was subjected to RNA expression analysis. Five micrograms of total RNA were used to generate biotin labeled cRNA using an oligo T7 primer in a reverse transcription reaction followed by in vitro transcription reaction with biotin labeled UTP and CTP. Ten micrograms of cRNA were fragmented and hybridized to RAE230A and RAE230B arrays (Affymetrix, Santa Clara, Calif.). Hybridized arrays were stained according to manufacturer's protocols on a Fluidics Station 450 and scanned on an Affymetrix scanner 3000. All array images were visually inspected for defects and quality. Signal values were determined using Gene Chip Operating System 1.0 (GCOS, Affymetrix). For each array, all probe sets were normalized to a mean signal intensity value of 100. The default GCOS statistical values were used for all analyses. Signal values and absolute detection calls were imported into Genesis 2.0 (GeneLogic, Gaithersburg, Md.) for analysis.
A gene was considered to be detectible if the mean expression in either the treated or untreated group was 50 signal units and the percentage of samples with a Present (P) call as determined by GCOS default settings was greater than or equal to 25%. A gene was considered to be regulated if the difference between the treated and untreated groups met the following criteria: (1) the gene had to be detected in at least 25% of the samples of at least one of the groups, (2) the fold change between was at least 1.7, and (3) the p-value based on a T-test had to be ≦0.01. Nine hundred fifty-nine qualifiers on the RAE230A array and 707 qualifiers on the RAE230B array met these conditions.
Based on the time course of response and the biological function associated with them, HIF1α and betacellulin were selected as candidate targets for treatment of vulvovaginal atrophy. These proteins were selected for further study because they were regulated by estradiol after 6 hours of treatment and thus can be expected to be at the top of the estrogenic signaling cascade.

Experiment [2] relates to vaginal epithelium. It is filed as in vivo, rat. Conditions: intravaginal; 50 nM 17β-estradiol, 10 nM recombinant mouse betacellulin, 1 μM Mersalyl; 2% carbomer vehicle.
Experiment [3] concerns HIF-regulated transcripts. Conditions: in vitro; cited from earlier work.

With `C[C@@H](NC(=O)C(=O)O)C(=O)O` [NODA, N-oxalyl-D-alanine], the “number of positive histological responses/number of samples evaluated” value was 1/4 in the experiment on vaginal epithelium [1] (OVX rat, NODA 10 μM intravaginal, Study 1); 1/3 in the experiment on vaginal epithelium [1] (OVX rat, NODA 10 μM intravaginal, Study 2); 0/3 with vaginal epithelium [1] (OVX rat, NODA 10 μM intravaginal, Study 3); 0/4 in the experiment with vaginal epithelium [1] (OVX rat, NODA 100 μM intravaginal, Study 1); 0/3 with vaginal epithelium [1] (OVX rat, NODA 100 μM intravaginal, Study 2); 0/3 in the experiment with vaginal epithelium [1] (OVX rat, NODA 100 μM intravaginal, Study 3). The “number of positive histological responses/number of samples evaluated” value is reported as 0/4 in the experiment with vaginal epithelium [1] (OVX rat, NODA 1 mM intravaginal, Study 1); 0/3 in the experiment with vaginal epithelium [1] (OVX rat, NODA 1 mM intravaginal, Study 2); 1/3 with vaginal epithelium [1] (OVX rat, NODA 1 mM intravaginal, Study 3); 1/4 in the experiment on vaginal epithelium [1] (OVX rat, NODA 1 mM intravaginal, Study 4); 3/4 in the experiment on vaginal epithelium [1] (OVX rat, NODA 10 mM intravaginal, Study 1); 0/3 in the experiment with vaginal epithelium [1] (OVX rat, NODA 10 mM intravaginal, Study 2). Moreover, the “number of positive histological responses/number of samples evaluated” value in the experiment on vaginal epithelium [1] (OVX rat, NODA 10 mM intravaginal, Study 3) was 1/3; in the experiment on vaginal epithelium [1] (OVX rat, NODA 10 mM intravaginal, Study 4), 0/4. In the experiment on vaginal epithelium [1], the “whether the compound mimics the action of 17β-estradiol in the vagina” value (from here on “whether the compound mimics the action”) is reported as “variable results”.
Regarding `CCOC(=O)c1ccnc(C(=O)OCC)c1` [2,4-DPD, 2,4-pyridinedicarboxylic acid, diethyl ester], the “number of positive histological responses/number of samples evaluated” value in the experiment on vaginal epithelium [1] (OVX rat, 2,4-DPD 0.1 μM intravaginal, Study 2) is on record as 0/4; in the experiment on vaginal epithelium [1] (OVX rat, 2,4-DPD 1 μM intravaginal, Study 2) it was 1/4; in the experiment with vaginal epithelium [1] (OVX rat, 2,4-DPD 10 μM intravaginal, Study 1), 0/4; in the experiment on vaginal epithelium [1] (OVX rat, 2,4-DPD 10 μM intravaginal, Study 2) it was 1/3; in the experiment on vaginal epithelium [1] (OVX rat, 2,4-DPD 10 μM intravaginal, Study 3), 1/4. Moreover, the “whether the compound mimics the action” value in the experiment on vaginal epithelium [1] is on record as “variable results”.
`C[C@]12CC[C@@H]3c4ccc(O)cc4CC[C@H]3[C@@H]1CC[C@@H]2O` [17β-estradiol]: the results for the “Fold Change Over Vehicle” value in the experiment on Betacellulin (6 hour), in the experiment with Betacellulin (72 hour) and with Betacellulin (120 hour (5 day)) were “+2.9”, “+2.8” and “+1.6”, respectively. The “histology of rat vagina (H&E stained cross-sections) compared to vehicle, FIG. 1” value in the experiment with vaginal epithelium [2] is “positive effect”.
Consider “CODDD: peptide corresponding to amino acids 549-582 of HIF1α (C-terminal oxygen dependent degradation domain), FIG. 3”, for which the “upregulation of HIF-regulated transcripts” value in experiment [3] was “capable of upregulating HIF-regulated transcripts in vitro”.
With `COC(=O)CNC(=O)C(=O)OC` [DMOG, N-(methoxyooxoacetyl)-glycine methyl ester], the “number of positive histological responses/number of samples evaluated” value in the experiment on vaginal epithelium [1] (OVX rat, DMOG 1 μM intravaginal, Study 2) was 0/4; in the experiment with vaginal epithelium [1] (OVX rat, DMOG 10 μM intravaginal, Study 1) it was 3/3; in the experiment on vaginal epithelium [1] (OVX rat, DMOG 10 μM intravaginal, Study 2), 2/3; in the experiment on vaginal epithelium [1] (OVX rat, DMOG 10 μM intravaginal, Study 3), 2/4; in the experiment on vaginal epithelium [1] (OVX rat, DMOG 100 μM intravaginal, Study 1), 0/3; with vaginal epithelium [1] (OVX rat, DMOG 1 mM intravaginal, Study 1), 0/3. Also, the “number of positive histological responses/number of samples evaluated” value in the experiment on vaginal epithelium [1] (OVX rat, DMOG 1 mM intravaginal, Study 3) is listed as 1/4. Also, the “whether the compound mimics the action” value in the experiment on vaginal epithelium [1] is “variable results”.
Take `O=C(O)c1ccc(O)c(O)c1` [3,4-DHB, 3,4-dihydroxybenzoate]: the “number of positive histological responses/number of samples evaluated” value is on record as 1/4 in the experiment on vaginal epithelium [1] (OVX rat, 3,4-DHB 10 μM intravaginal, Study 1); 0/4 in the experiment on vaginal epithelium [1] (OVX rat, 3,4-DHB 100 μM intravaginal, Study 1); 0/4 in the experiment on vaginal epithelium [1] (OVX rat, 3,4-DHB 1 mM intravaginal, Study 1); 0/4 in the experiment on vaginal epithelium [1] (OVX rat, 3,4-DHB 1 mM intravaginal, Study 2); 0/3 in the experiment on vaginal epithelium [1] (OVX rat, 3,4-DHB 1 mM intravaginal, Study 3); 4/4 in the experiment with vaginal epithelium [1] (OVX rat, 3,4-DHB 10 mM intravaginal, Study 1). Moreover, the “number of positive histological responses/number of samples evaluated” value in the experiment on vaginal epithelium [1] (OVX rat, 3,4-DHB 10 mM intravaginal, Study 2) was 1/4; with vaginal epithelium [1] (OVX rat, 3,4-DHB 10 mM intravaginal, Study 3), 2/3; in the experiment on vaginal epithelium [1] (OVX rat, 3,4-DHB 10 mM intravaginal, Study 4), 1/3. For the same molecule, in the experiment on vaginal epithelium [1], the “whether the compound mimics the action” value is recorded as “variable results”.

B1: NODDD: peptide corresponding to amino acids 343417 of HIF1α (N-terminal oxygen dependent degradation domain), FIG. 3 (peptide)
chain: SGIIQHDLIFSLQQTECVLKPVESSDMKMTQLFTKVESEDTSSLFDKLKKEPDALTLLAPAAGDTIISLDFGSND
modifications: NODDD sequence from Hif1a (amino acids 343-417)
Regarding B1, in experiment [3], the “upregulation of HIF-regulated transcripts” value is “capable of upregulating HIF-regulated transcripts in vitro”.

B2: Betacellulin: mouse betacellulin (Asp32-Gln118) generated in E. coli by R&D Systems (catalog # 1025-CE); member of the EGF family (protein)
chain: DGNTTRTPETNGSLCGAPGENCTGTTPRQKVKTHFSRCPKQYKHYCIHGRCRFVVDEQTPSCICEKGYFGARCERVDLFYLQQDRGQ
modifications: Mouse betacellulin peptide (asp32-gln118)
notes: mouse betacellulin (Asp32-Gln118) generated in E. coli by R&D Systems (catalog # 1025-CE); member of the EGF family
In the case of B2, the “histology of rat vagina (H&E stained cross-sections) compared to vehicle, FIG. 1” value in the experiment with vaginal epithelium [2] is reported as “positive effect”. Besides, the “number of positive histological changes over the number of samples evaluated” value with vaginal epithelium [1] (Betacellulin dose 10 nM intravaginal, Study 1) is reported as 3/3; in the experiment with vaginal epithelium [1] (Betacellulin dose 10 nM intravaginal, Study 2), 0/4; in the experiment on vaginal epithelium [1] (Betacellulin dose 10 nM intravaginal, Study 3) it was 3/3; in the experiment with vaginal epithelium [1] (Betacellulin dose 100 nM intravaginal, Study 2), 3/4; with vaginal epithelium [1] (Betacellulin dose 100 nM intravaginal, Study 3) it was 2/3; in the experiment on vaginal epithelium [1] (Betacellulin dose 1 μM intravaginal, Study 2), 2/4. For the same molecule, the “effect on the rat vaginal epithelium, in words” value in the experiment with vaginal epithelium [1] (ovariectomized rats) is reported as “mimics the effects of estrogen on the rat vaginal epithelium”. For the same molecule, the “histological change of the vaginal epithelial layer compared to vehicle” value in the experiment with vaginal epithelium [1] (rats, intravaginal dosing, Example 2) was “clear thickening and differentiation of the vaginal epithelial layer”.

These data come from patent publication US20060216295A1, “Methods of identifying therapeutic targets for the treatment of vulvovaginal atrophy” (Wyeth, priority 2005, published 2006).
